Laboratory results: US20250250227A1, “AMINO LIPID COMPOUND, PREPARATION METHOD THEREFOR, COMPOSITION THEREOF AND USE THEREOF” (SHENZHEN SHENXIN BIOTECHNOLOGY CO., LTD., priority 2022, published 2025)

Tests used:
[1] = Preparation and characterisation of mRNA-encapsulating lipid nanoparticle (encapsulation efficiency, particle size); type: physicochemical; conditions: LNP encapsulating Fluc mRNA; Lipid:DSPC:CHO-HP:M-DMG-2000 48:10:40.5:1.5
Experimental: A specified amount of Fluc mRNA stock solution, 0.2 M sodium acetate buffer, and DEPC water were added to a container, and mixed well to obtain a water phase;
The amino lipid compound of the present disclosure, a helper lipid, a structural lipid, and a PEG-lipid were separately dissolved in absolute ethanol to prepare respective solutions at concentrations of 20 mg/mL, 10 mg/mL, 20 mg/mL, and 25 mg/mL, respectively. The above four solutions were pipetted at a molar ratio of Lipid:DSPC:CHO—HP:M-DMG-2000 of 48:10:40.5:1.5, and mixed well to prepare an alcohol phase. • (2) Encapsulation: The water phase and the alcohol phase were injected into a microfluidic chip at a flow rate of water phase: alcohol phase=12 mL/min: 4 mL/min by using a microfluidic preparation instrument (MPE-L2), and encapsulation was carried out at a flow rate of water phase: alcohol phase=9 mL/min: 3 mL/min to obtain mRNA-encapsulating lipid nanoparticle (mRNA-LNP). • (3) Dialysis: The product of step (2) was loaded in a dialysis bag and placed in a Tris Buffer-8% sucrose solution for replacement to remove ingredients such as residual ethanol, unassembled lipids. Dialysis was conducted for 2 h with magnetic stirring at room temperature and under protection from light (dialysate was replaced every 1 hour). • (4) The product of step (3) was sterilized by passing through a […] microporous membrane, and then packaged.
Lipid nanoparticle formulations encapsulating Fluc mRNA were prepared, with a concentration of Fluc mRNA of 0.2 g/L, a mass ratio of Fluc mRNA to Lipid of 1:10, a particle size of 80-130 nm, and a encapsulation efficiency of 85% or higher.
The encapsulation efficiency of the lipid nanoparticle encapsulating luciferase mRNA (Fluc mRNA) with a representative amino lipid compound and the fluorescence expression intensity induced by the same are shown in Table 4, with the amino lipid compound 118 as a control. […]

Female BALB/c mice = experiment: Performance evaluation of in vivo delivery of Fluc mRNA lipid nanoparticle (IVIS, body and organs); conditions: Fluc mRNA LNP; for Liver (fluorescence expression intensity) / Spleen (fluorescence expression intensity): 75 μL IV; for Liver (fluorescence expression intensity) / Spleen (fluorescence expression intensity) / Total flux (fluorescence expression intensity) / (Spleen/Total Flux) * 100%: 6 hours after injection; for Liver (fluorescence expression intensity) / Spleen (fluorescence expression intensity) / Total flux (fluorescence expression intensity): IVIS; for Total flux (fluorescence expression intensity): 75 μL tail vein injection (IV); for (Spleen/Total Flux) * 100% / Multiple of spleen delivery/total delivery to amino lipid compound 118: IV; for Multiple of spleen delivery/total delivery to amino lipid compound 118: relative to amino lipid compound 118
Experimental: Animal preparation: Female BALB/c mice of 6-8 weeks old were selected and raised in an SPF grade breeding room. Animal testing was conducted in strict accordance with the guidelines of national health institutions and animal ethics requirements.
In vivo Delivery: prior to injection of the test LNP formulations, the LNP formulations were gently and repeatedly inverted to thoroughly mix the formulation samples. A corresponding amount of the formulation samples were aspirated with a 1 ml insulin syringe, and the LNP formulations were injected by tail vein injection (IV), with 3 mice in duplicate per formulation. Each mouse was injected with 75 μL of the luciferase mRNA (Fluc mRNA)-encapsulating lipid nanoparticle formulation prepared in Experimental Example 1.
6 hours after injection of LNP formulations, mice were injected with 200 μL D-Luciferin luciferase developing substrate (Catalog No. 122799; Manufacturer: Perkin Elmer). After the substrate was injected, the mice were anesthetized with isoflurane inhalation, and the injection time of luciferase developing substrate was recorded.
The encapsulation efficiency of the lipid nanoparticle encapsulating luciferase mRNA (Fluc mRNA) with a representative amino lipid compound and the fluorescence expression intensity induced by the same are shown in Table 4, with the amino lipid compound 118 as a control.
The multiple of spleen delivery/total delivery of fluorescence expression intensity induced by lipid nanoparticle encapsulating luciferase mRNA (Fluc mRNA) with a representative amino lipid compound to amino lipid compound 118 is shown in Table 5.

| Structure (SMILES) | Encapsulation efficiency [1] | Liver (fluorescence expression intensity) (Female BALB/c mice) | Spleen (fluorescence expression intensity) (Female BALB/c mice) | Total flux (fluorescence expression intensity) (Female BALB/c mice) | (Spleen/Total Flux) * 100% (Female BALB/c mice) | Multiple of spleen delivery/total delivery to amino lipid compound 118 (Female BALB/c mice) |
| --- | --- | --- | --- | --- | --- | --- |
| CCCCCCC(CCCCCC)OC(=O)CCCCCCCCC(CCCCCCCCC(=O)OC(CCCCCC)CCCCCC)OC(=O)N(CCCCC)CCCN(C)C [Compound 108] | 91.78% | 6.84E+07 | 1.02E+06 | 3.40E+08 | 0.30% | 0.88 |
| CCCCCCC(CCCCCC)OC(=O)CCCCCCCCC(CCCCCCCCC(=O)OC(CCCCCC)CCCCCC)OC(=O)N(CCCCCC)CCCN(C)C [Compound 109] | 92.87% | 5.22E+07 | 8.53E+05 | 2.80E+08 | 0.30% | 0.90 |
| CCCCCCCN(CCCN(C)C)C(=O)OC(CCCCCCCCC(=O)OC(CCCCCC)CCCCCC)CCCCCCCCC(=O)OC(CCCCCC)CCCCCC [Compound 110] | 90.82% | 5.83E+07 | 8.71E+05 | 2.44E+08 | 0.36% | 1.05 |
| CCCCCCCC(=O)N(CCCN(C)C)C(CCCCCCCCC(=O)OC(CCCCCC)CCCCCC)CCCCCCCCC(=O)OC(CCCCCC)CCCCCC [Compound 118, reference compound] | 90.53% | 1.88E+08 | 2.19E+06 | 6.46E+08 | 0.34% | 1.00 |
| CC/C=C\COC(=O)CCCN(CCCN(C)C)C(=O)OC(CCCCCCCCC(=O)OC(CCCCCC)CCCCCC)CCCCCCCCC(=O)OC(CCCCCC)CCCCCC [Compound 275] | 90.61% | 1.23E+08 | 8.84E+06 | 8.16E+08 | 1.08% | 3.19 |
| CCC/C=C\COC(=O)CCCN(CCCN(C)C)C(=O)OC(CCCCCCCCC(=O)OC(CCCCCC)CCCCCC)CCCCCCCCC(=O)OC(CCCCCC)CCCCCC [Compound 276] | 88.92% | 1.43E+08 | 4.67E+06 | 7.70E+08 | 0.61% | 1.78 |
| CC/C=C\CCOC(=O)CCCN(CCCN(C)C)C(=O)OC(CCCCCCCCC(=O)OC(CCCCCC)CCCCCC)CCCCCCCCC(=O)OC(CCCCCC)CCCCCC [Compound 277] | 91.00% | 7.98E+07 | 8.42E+06 | 3.14E+08 | 2.68% | 7.89 |
| CCCC/C=C\CCOC(=O)CCCN(CCCN(C)C)C(=O)OC(CCCCCCCCC(=O)OC(CCCCCC)CCCCCC)CCCCCCCCC(=O)OC(CCCCCC)CCCCCC [Compound 279] | 92.43% | 9.55E+07 | 4.57E+06 | 6.29E+08 | 0.73% | 2.14 |
| CC/C=C\COC(=O)CCCCCN(CCCN(C)C)C(=O)OC(CCCCCCCCC(=O)OC(CCCCCC)CCCCCC)CCCCCCCCC(=O)OC(CCCCCC)CCCCCC [Compound 284] | 91.63% | 3.29E+07 | 5.20E+06 | 3.42E+08 | 1.52% | 4.47 |
| CCCCCCC(CCCCCC)OC(=O)CCCCCCCCC(CCCCCCCCC(=O)OC(CCCCCC)CCCCCC)OC(=O)N(CCCCCC(=O)OC(C)CC)CCCN(C)C (stereo not drawn) [Compound 298] | 92.85% | 3.32E+07 | 2.13E+06 | 2.61E+08 | 0.82% | 2.40 |
| CCCCCCC(CCCCCC)OC(=O)CCCCCCCCC(CCCCCCCCC(=O)OC(CCCCCC)CCCCCC)OC(=O)N(CCCCC(=O)OC(C)CCC)CCCN(C)C (stereo not drawn) [Compound 303] | 93.23% | 8.58E+07 | 5.56E+06 | 6.41E+08 | 0.87% | 2.55 |
| CCCCCCC(CCCCCC)OC(=O)CCCCCCCCC(CCCCCCCCC(=O)OC(CCCCCC)CCCCCC)OC(=O)N(CCCCC(=O)OC(CC)CC)CCCN(C)C [Compound 304] | 92.03% | 1.06E+08 | 1.48E+07 | 5.18E+08 | 2.86% | 8.40 |
| CCCCCCC(CCCCCC)OC(=O)CCCCCCCCC(CCCCCCCCC(=O)OC(CCCCCC)CCCCCC)OC(=O)N(CCCCC(=O)OC(C)CCCC)CCCN(C)C (stereo not drawn) [Compound 305] | 90.70% | 9.19E+07 | 7.03E+06 | 6.71E+08 | 1.05% | 3.08 |
| CCCCCCC(CCCCCC)OC(=O)CCCCCCCCC(CCCCCCCCC(=O)OC(CCCCCC)CCCCCC)OC(=O)N(CCCCC(=O)OC(CC)CCC)CCCN(C)C (stereo not drawn) [Compound 306] | 91.92% | 4.13E+07 | 5.44E+06 | 2.45E+08 | 2.22% | 6.53 |
| CCCCCCC(CCCCCC)OC(=O)CCCCCCCCC(CCCCCCCCC(=O)OC(CCCCCC)CCCCCC)OC(=O)N(CCCC(=O)OC(C)CC)CCCN(C)C (stereo not drawn) [Compound 308] | 93.71% | 9.58E+07 | 4.93E+06 | 6.29E+08 | 0.78% | 2.31 |
| CCCCCCC(CCCCCC)OC(=O)CCCCCCCCC(CCCCCCCCC(=O)OC(CCCCCC)CCCCCC)OC(=O)N(CCCC(=O)OC(C)CCC)CCCN(C)C (stereo not drawn) [Compound 309] | 91.62% | 4.90E+07 | 3.44E+06 | 3.69E+08 | 0.93% | 2.74 |
| CCCCCCC(CCCCCC)OC(=O)CCCCCCCCC(CCCCCCCCC(=O)OC(CCCCCC)CCCCCC)OC(=O)N(CCCN(C)C)CCC(=O)OC(C)C [Compound 316] | 90.67% | 1.26E+08 | 2.03E+07 | 8.16E+08 | 2.49% | 7.32 |
